Measured values taken from the supplement of paper PMC4862054.
Several values for one entry are separate records, joined by “and”; a condition that tells them apart may be missing. Equal entries are not always repeated.

Assays:
Test in all cases: drug sensitivity score (DSS), CellTiter-Blue viability (DSS (AUC-based score)); higher = stronger viability inhibition; extreme values may be limits of the assay
Conditions in all cases: incubation time: 72 h
BT-474 = test system: BT-474
Protocol: (§1)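 DSRT with the CellTiter-Blue (resazurin reduction) viability readout, fluorescence 560/590 nm, 72 h incubation. Plates were normalised to DMSO and benzethonium chloride controls. DSS is computed from the area under the fitted dose-response curve (5 or 9 concentrations).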

HCC1599 = test system: HCC1599
Protocol: as §1

MDA-MB-468 = test system: MDA-MB-468
Protocol: as §1

Hs578T = test system: Hs578T
Protocol: as §1

CAL-85-1 = test system: CAL-85-1
Protocol: as §1

HDQ-P1 = test system: HDQ-P1
Protocol: as §1

MDA-MB-231 = test system: MDA-MB-231
Protocol: as §1

CAL-148 = test system: CAL-148
Protocol: as §1

DU-4475 = test system: DU-4475
Protocol: as §1

HCC1937 = test system: HCC1937
Protocol: as §1

MDA-MB-436 = test system: MDA-MB-436
Protocol: as §1

HCC1143 = test system: HCC1143
Protocol: as §1

SK-BR-3 = test system: SK-BR-3
Protocol: as §1

CAL-120 = test system: CAL-120
Protocol: as §1

MDA-MB-453 = test system: MDA-MB-453
Protocol: as §1

CAL-51 = test system: CAL-51
Protocol: as §1

Row | Structure (SMILES) | drug sensitivity score (BT-474) | drug sensitivity score (HCC1599) | drug sensitivity score (MDA-MB-468) | drug sensitivity score (Hs578T) | drug sensitivity score (CAL-85-1) | drug sensitivity score (HDQ-P1) | drug sensitivity score (MDA-MB-231) | drug sensitivity score (CAL-148) | drug sensitivity score (DU-4475) | drug sensitivity score (HCC1937) | drug sensitivity score (MDA-MB-436) | drug sensitivity score (HCC1143) | drug sensitivity score (SK-BR-3) | drug sensitivity score (CAL-120) | drug sensitivity score (MDA-MB-453) | drug sensitivity score (CAL-51)
1 | Cc1c(C(=O)Nc2ccc(N3C[C@@H](C)O[C@@H](C)C3)nc2)cccc1-c1ccc(OC(F)(F)F)cc1 [NVP-LDE225] | 0 | 0 | 0 | 0 | 0 | 0 | 0 | 0 | 0 | 0 | 0 | 0 | 0 | 0 | 0 | 0
2 | CO[C@H](C(=O)[C@@H](O)[C@@H](C)O)[C@@H]1Cc2cc3cc(O[C@H]4C[C@@H](O[C@@H]5C[C@@H](O)[C@H](O)[C@@H](C)O5)[C@H](O)[C@@H](C)O4)c(C)c(O)c3c(O)c2C(=O)[C@H]1O[C@H]1C[C@@H](O[C@@H]2C[C@@H](O)[C@@H](O[C@@H]3C[C@](C)(O)[C@H](O)[C@@H](C)O3)[C@@H](C)O2)[C@H](O)[C@@H](C)O1 [Plicamycin] | 16.8 and 17.6 | 18.9 and 20.2 | 29.9 and 30.3 | 28 and 31.7 | 22.8 and 23.8 | 17.6 and 22.2 | 26 and 26.4 | 25.6 and 24.2 | 28 and 28.2 | 21.1 and 22.3 | 23.3 and 27.5 | 22.2 and 25.5 | 25 and 27.1 | 22.5 and 23.6 | 22.7 and 24.3 | 22.1 and 22.3
3 | C[C@@H](C(=O)O)c1ccc(-c2ccccc2)c(F)c1 [Tarenflurbil] | 0 | 0 | 0 | 0 | 0 | 0 | 0 | 0 | 0 | 0 | 0 | 0 | 0 | 0 | 1.49 | 0
4 | NC(=O)c1cccc2cn(-c3ccc([C@@H]4CCCNC4)cc3)nc12 [MK-4827] | 0 | 0 | 0 | 0 | 0 | 0 | 0 | 2.86 | 6.73 | 8.54 | 0 | 3.49 | 0 | 0 | 0 | 5.3
5 | NC(=O)NO [Hydroxyurea] | 0 | 0 | 0 | 0 | 0 | 0 | 0 | 0 | 0 | 2.94 | 0 | 0 | 0 | 0 | 0 | 0
6 | N[C@@H](Cc1ccc(N(CCCl)CCCl)cc1)C(=O)O [Melphalan] | 0 | 0 | 0 | 3.68 | 0 | 0 | 0 | 0 | 0 | 9.6 | 0 | 0 | 0 | 0 | 0 | 0
7 | Cn1nnc2c(C(N)=O)ncn2c1=O [Temozolomide] | 0 | 0 | 0 | 0 | 0 | 1.58 | 0 | 0 | 0 | 0 | 0 | 0 | 0 | 0 | 0 | 0
8 | NC1(c2ccc(-c3nc4ccn5c(=O)[nH]nc5c4cc3-c3ccccc3)cc2)CCC1 [MK-2206] | 3.69 | 0 | 2.36 | 0 | 0 | 0 | 0 | 1.65 | 0 | 0 | 2.37 | 0 | 6.38 | 0 | 4.04 | 1.04
